compound,measurement,setting,value
CC(C)(C)C(=O)C(Oc1ccc(Cl)cc1)n1ccnc1 (stereo not drawn),solubility (mole fraction),"in acetone, 288.15 K",0.147
same,solubility (mole fraction),"in acetone, 293.15 K",0.164
same,solubility (mole fraction),"in acetone, 298.15 K",0.185
same,solubility (mole fraction),"in acetone, 303.15 K",0.207
same,solubility (mole fraction),"in acetone, 308.15 K",0.235
same,solubility (mole fraction),"in acetone, 313.15 K",0.259
same,solubility (mole fraction),"in acetone, 318.15 K",0.301
same,solubility (mole fraction),"in acetonitrile, 288.15 K",0.0724
same,solubility (mole fraction),"in acetonitrile, 293.15 K",0.083
same,solubility (mole fraction),"in acetonitrile, 298.15 K",0.103
same,solubility (mole fraction),"in acetonitrile, 303.15 K",0.129
same,solubility (mole fraction),"in acetonitrile, 308.15 K",0.158
same,solubility (mole fraction),"in acetonitrile, 313.15 K",0.19
same,solubility (mole fraction),"in acetonitrile, 318.15 K",0.222
same,solubility (mole fraction),"in ethanol, 288.15 K",0.112
same,solubility (mole fraction),"in ethanol, 293.15 K",0.132
same,solubility (mole fraction),"in ethanol, 298.15 K",0.157
same,solubility (mole fraction),"in ethanol, 303.15 K",0.185
same,solubility (mole fraction),"in ethanol, 308.15 K",0.211
same,solubility (mole fraction),"in ethanol, 313.15 K",0.25
same,solubility (mole fraction),"in ethanol, 318.15 K",0.288
same,solubility (mole fraction),"in ethyl acetate, 288.15 K",0.0909
same,solubility (mole fraction),"in ethyl acetate, 293.15 K",0.105
same,solubility (mole fraction),"in ethyl acetate, 298.15 K",0.126
same,solubility (mole fraction),"in ethyl acetate, 303.15 K",0.151
same,solubility (mole fraction),"in ethyl acetate, 308.15 K",0.172
same,solubility (mole fraction),"in ethyl acetate, 313.15 K",0.202
same,solubility (mole fraction),"in ethyl acetate, 318.15 K",0.239
same,solubility (mole fraction),"in isobutanol, 288.15 K",0.098
same,solubility (mole fraction),"in isobutanol, 293.15 K",0.112
same,solubility (mole fraction),"in isobutanol, 298.15 K",0.137
same,solubility (mole fraction),"in isobutanol, 303.15 K",0.161
same,solubility (mole fraction),"in isobutanol, 308.15 K",0.192
same,solubility (mole fraction),"in isobutanol, 313.15 K",0.22
same,solubility (mole fraction),"in isobutanol, 318.15 K",0.26
same,solubility (mole fraction),"in methanol, 288.15 K",0.161
same,solubility (mole fraction),"in methanol, 293.15 K",0.181
same,solubility (mole fraction),"in methanol, 298.15 K",0.204
same,solubility (mole fraction),"in methanol, 303.15 K",0.226
same,solubility (mole fraction),"in methanol, 308.15 K",0.255
same,solubility (mole fraction),"in methanol, 313.15 K",0.28
same,solubility (mole fraction),"in methanol, 318.15 K",0.318
same,solubility (mole fraction),"in methyl acetate, 288.15 K",0.0955
same,solubility (mole fraction),"in methyl acetate, 293.15 K",0.109
same,solubility (mole fraction),"in methyl acetate, 298.15 K",0.129
same,solubility (mole fraction),"in methyl acetate, 303.15 K",0.156
same,solubility (mole fraction),"in methyl acetate, 308.15 K",0.179
same,solubility (mole fraction),"in methyl acetate, 313.15 K",0.214
same,solubility (mole fraction),"in methyl acetate, 318.15 K",0.251
same,solubility (mole fraction),"in n-butanol, 288.15 K",0.111
same,solubility (mole fraction),"in n-butanol, 293.15 K",0.131
same,solubility (mole fraction),"in n-butanol, 298.15 K",0.152
same,solubility (mole fraction),"in n-butanol, 303.15 K",0.181
same,solubility (mole fraction),"in n-butanol, 308.15 K",0.205
same,solubility (mole fraction),"in n-butanol, 313.15 K",0.245
same,solubility (mole fraction),"in n-butanol, 318.15 K",0.283
same,solubility (mole fraction),"in n-butyl acetate, 288.15 K",0.088
same,solubility (mole fraction),"in n-butyl acetate, 293.15 K",0.0994
same,solubility (mole fraction),"in n-butyl acetate, 298.15 K",0.115
same,solubility (mole fraction),"in n-butyl acetate, 303.15 K",0.142
same,solubility (mole fraction),"in n-butyl acetate, 308.15 K",0.163
same,solubility (mole fraction),"in n-butyl acetate, 313.15 K",0.192
same,solubility (mole fraction),"in n-butyl acetate, 318.15 K",0.227
